± gives the expanded uncertainty stated by the source.
How the values were obtained:
[1] = molar heat capacity at constant pressure; settings: 101 kPa, Liquid, Small sample (50 mg) DSC
[2] = 101 kPa, Liquid, Hot wire method
[3] = molar heat capacity at constant pressure; xn = mol fraction of the nth substance listed; settings: 101 kPa, Liquid, Small sample (50 mg) DSC, x2 = 0
[4] = xn = mol fraction of the nth substance listed; settings: 101 kPa, Liquid, Hot wire method, x2 = 0

O=S1(=O)CCCC1 [sulfolane]
molar heat capacity at constant pressure ([1]; 303.15 K): 181.5 ± 2.8 J/K/mol
molar heat capacity at constant pressure ([1]; 313.15 K): 185.1 ± 2.9 J/K/mol
molar heat capacity at constant pressure ([1]; 323.15 K): 188.7 ± 2.9 J/K/mol
molar heat capacity at constant pressure ([1]; 333.15 K): 192.3 ± 3 J/K/mol
molar heat capacity at constant pressure ([1]; 343.15 K): 194.3 ± 3 J/K/mol
molar heat capacity at constant pressure ([1]; 353.15 K): 197.8 ± 3.1 J/K/mol
thermal conductivity ([2]; 303.15 K): 0.1678 ± 0.0008 W/m/K
thermal conductivity ([2]; 313.15 K): 0.1656 ± 0.0012 W/m/K
thermal conductivity ([2]; 323.15 K): 0.1634 ± 0.0011 W/m/K
thermal conductivity ([2]; 333.15 K): 0.1616 ± 0.0011 W/m/K
thermal conductivity ([2]; 343.15 K): 0.1593 ± 0.0011 W/m/K
thermal conductivity ([2]; 353.15 K): 0.1581 ± 0.0009 W/m/K

O [water]
molar heat capacity at constant pressure ([1]; 303.15 K): 75.3 ± 1.2 J/K/mol
molar heat capacity at constant pressure ([1]; 313.15 K): 75.26 ± 1.2 J/K/mol
molar heat capacity at constant pressure ([1]; 323.15 K): 75.3 ± 1.2 J/K/mol
molar heat capacity at constant pressure ([1]; 333.15 K): 75.39 ± 1.2 J/K/mol
molar heat capacity at constant pressure ([1]; 343.15 K): 75.48 ± 1.2 J/K/mol
molar heat capacity at constant pressure ([1]; 353.15 K): 75.6 ± 1.2 J/K/mol
thermal conductivity ([2]; 303.15 K): 0.6137 ± 0.0027 W/m/K
thermal conductivity ([2]; 313.15 K): 0.6307 ± 0.0039 W/m/K
thermal conductivity ([2]; 323.15 K): 0.6437 ± 0.0039 W/m/K
thermal conductivity ([2]; 333.15 K): 0.6548 ± 0.004 W/m/K
thermal conductivity ([2]; 343.15 K): 0.6632 ± 0.004 W/m/K
thermal conductivity ([2]; 353.15 K): 0.67 ± 0.0037 W/m/K

O [water] + O=S1(=O)CCCC1
molar heat capacity at constant pressure ([3]; 303.15 K): 75.3 ± 1.2 J/K/mol
molar heat capacity at constant pressure ([3]; 313.15 K): 75.26 ± 1.2 J/K/mol
molar heat capacity at constant pressure ([3]; 323.15 K): 75.3 ± 1.2 J/K/mol
molar heat capacity at constant pressure ([3]; 333.15 K): 75.39 ± 1.2 J/K/mol
molar heat capacity at constant pressure ([3]; 343.15 K): 75.48 ± 1.2 J/K/mol
molar heat capacity at constant pressure ([3]; 353.15 K): 75.6 ± 1.2 J/K/mol
thermal conductivity ([4]; 303.15 K): 0.6137 ± 0.0027 W/m/K
thermal conductivity ([4]; 313.15 K): 0.6307 ± 0.0039 W/m/K
thermal conductivity ([4]; 323.15 K): 0.6437 ± 0.0039 W/m/K
thermal conductivity ([4]; 333.15 K): 0.6548 ± 0.004 W/m/K
thermal conductivity ([4]; 343.15 K): 0.6632 ± 0.004 W/m/K
thermal conductivity ([4]; 353.15 K): 0.67 ± 0.0037 W/m/K

Source: the NIST ThermoML archive (doi:10.1016/j.tca.2013.03.017)
